These results are taken from patent US9000020B2, “Linked dibenzimidazole antivirals” (Enanta Pharmaceuticals, Inc., priority 2009, dated 2015).

One may read the EC50 as the concentration at which the effect is half-maximal.

The subject of the experiment is HCV 1b genotype replicon. The experiment can be described thus: HCV Replicon Assay - qRT-PCR (HCV RNA detection). The format is cell-based. Particulars: Hepatitis C virus, from the qRT-PCR or luciferase assay (not specified which), read-out: Genotype-1b replicon EC50 Range. An excerpt:
HCV replicon cell lines (kindly provided by R. Bartenschlager) isolated from colonies as described by Lohman et. al. (Lohman et al. (1999) Science 285: 110-113, expressly incorporated by reference in its entirety) and used for all experiments. The HCV replicon has the nucleic acid sequence set forth in EMBL Accession No.: AJ242651, the coding sequence of which is from nucleotides 1801 to 8406.
The coding sequence of the published HCV replicon was synthesized and subsequently assembled in a modified plasmid pBR322 (Promega, Madison, Wis.) using standard molecular biology techniques. One replicon cell line (“SGR 11-7”) stably expresses HCV replicon RNA which consists of (i) the HCV 5′UTR fused to the first 12 amino acids of the capsid protein, (ii) the neomycin phosphotransferase gene (neo), (iii) the IRES from encephalomyocarditis virus (EMCV), and (iv) HCV NS2 to NS5B genes and the HCV 3′UTR. Another replicon cell line (“Huh-luc/neo-ET”) described by Vrolijk et. al. (Vrolijk et. al. (2003) Journal of Virological Methods 110:201-209, expressly incorporated by reference in its entirety) stably expresses HCV replicon RNA which consists of (i) the HCV 5′UTR fused to the first 12 amino acids of the capsid protein, (ii) the firefly luciferase reporter gene, (iii) the ubiquitin gene, (iv) the neomycin phosphotransferase gene (neo), (v) the IRES from encephalomyocarditis virus (EMCV), and (vi) HCV NS3 to NS5B genes that harbor cell culture adaptive mutations (E1202G, T1280I, K1846T) and the HCV 3′UTR.
These cell lines were maintained at 37° C., 5% CO2, 100% relative humidity in DMEM (Cat #11965-084, Invitrogen), with 10% fetal calf serum (“FCS”, Invitrogen), 1% non-essential amino acids (Invitrogen), 1% of Glutamax (Invitrogen), 1% of 100× penicillin/streptomycin (Cat #15140-122, Invitrogen) and Geneticin (Cat #10131-027, Invitrogen) at 0.75 mg/ml or 0.5 mg/ml for 11-7 and Huh-luc/neo-ET cells, respectively.
EC50 values of single agent compounds and combinations were determined by HCV RNA detection using quantitative RT-PCR, according to the manufacturer's instructions, with a TaqMan® One-Step RT-PCR Master Mix Reagents Kit (Cat #AB 4309169, Applied Biosystems) on an ABI Model 7500 thermocycler. The TaqMan primers used for detecting and quantifying were obtained from Integrated DNA Technologies. HCV RNA was normalized to GAPDH RNA levels in drug-treated cells, which was detected and quantified using the Human GAPDH Endogenous Control Mix (Applied Biosystems, AB 4310884E). Total cellular RNA was purified from 96-well plates using the RNAqueous 96 kit (Ambion, Cat #AM1812). Chemical agent cytotoxicity was evaluated using an MTS assay according to the manufacturer's directions (Promega).
The compounds of the present invention can be effective against the HCV 1b genotype. It should also be understood that the compounds of the present invention can inhibit multiple genotypes of HCV. In one embodiment, compound of the present invention are active against the 1a, 1b, 2a, 2b, 3a, 4a, and 5a genotypes. […] EC50 ranges against HCV 1b are as follows: A>10 nM; B 1-10 nM; C<1 nM.
As for `CN(C)[C@@H](C(=O)N1CCC[C@H]1c1nc2cc(-c3ccc(-c4ccc5[nH]c([C@@H]6CCCN6C(=O)[C@@H](c6ccccc6)N(C)C)nc5c4)cc3)ccc2[nH]1)c1ccccc1` [Compound 2], the EC50 is < 1 nM.

Regarding `COC(=O)N[C@@H](C(=O)N1CCC[C@H]1c1nc2cc(-c3ccc(-c4ccc5[nH]c([C@@H]6CCCN6C(=O)[C@H](NC(=O)OC)c6ccccc6)nc5c4)cc3)ccc2[nH]1)c1ccccc1` [Compound 3], the concentration giving a half-maximal response (EC50) is < 1 nM.

For `CO[C@@H](C(=O)N1CCC[C@H]1c1nc2cc(-c3ccc(-c4ccc5[nH]c([C@@H]6CCCN6C(=O)[C@H](OC)c6ccccc6)nc5c4)cc3)ccc2[nH]1)c1ccccc1` [Compound 20], the EC50 was < 1 nM.

For `O=C([C@@H]1CCCO1)N1CCC[C@H]1c1nc2cc(-c3ccc(-c4ccc5[nH]c([C@@H]6CCCN6C(=O)[C@@H]6CCCO6)nc5c4)cc3)ccc2[nH]1` [Compound 25], the half-maximal effective concentration (EC50) is > 10 nM.

For the compound `O=C([C@H]1CCCO1)N1CCC[C@H]1c1nc2cc(-c3ccc(-c4ccc5[nH]c([C@@H]6CCCN6C(=O)[C@H]6CCCO6)nc5c4)cc3)ccc2[nH]1` [Compound 26], the concentration for a half-maximal effect (EC50) is > 10 nM.

As to `COC(=O)N[C@H]1CC[C@H](C(=O)N2CCC[C@H]2c2nc3cc(-c4ccc(-c5ccc6[nH]c([C@@H]7CCCN7C(=O)[C@H]7CC[C@H](NC(=O)OC)CC7)nc6c5)cc4)ccc3[nH]2)CC1` [Compound 42], the EC50 was > 10 nM.

`O=C(c1ccncc1)N1CCC[C@H]1c1nc2cc(-c3ccc(-c4ccc5[nH]c([C@@H]6CCCN6C(=O)c6ccncc6)nc5c4)cc3)ccc2[nH]1` [Compound 52]: the EC50 is > 10 nM.

Consider `O=C(c1ccccn1)N1CCC[C@H]1c1nc2cc(-c3ccc(-c4ccc5[nH]c([C@@H]6CCCN6C(=O)c6ccccn6)nc5c4)cc3)ccc2[nH]1` [Compound 54], for which the EC50 is > 10 nM.

On to `COC(=O)N[C@@H](C)C(=O)N1CCC[C@H]1c1nc2cc(-c3ccc(-c4ccc5[nH]c([C@@H]6CCCN6C(=O)[C@H](C)NC(=O)OC)nc5c4)cc3)ccc2[nH]1` [Compound 62], for which the concentration for a half-maximal effect (EC50) was < 1 nM.

For the compound `CC[C@H](NC(=O)OC)C(=O)N1CCC[C@H]1c1nc2cc(-c3ccc(-c4ccc5[nH]c([C@@H]6CCCN6C(=O)[C@H](CC)NC(=O)OC)nc5c4)cc3)ccc2[nH]1` [Compound 67], the concentration giving a half-maximal response (EC50) was < 1 nM.

For the compound `COC(=O)N[C@H](C(=O)N1CCC[C@H]1c1nc2cc(-c3ccc(-c4ccc5[nH]c([C@@H]6CCCN6C(=O)[C@@H](NC(=O)OC)[C@@H](C)O)nc5c4)cc3)ccc2[nH]1)[C@@H](C)O` [Compound 70], the EC50 is < 1 nM.

For `COC(=O)N[C@H](C(=O)N1CCC[C@H]1c1nc2cc(-c3ccc(-c4ccc5[nH]c([C@@H]6CCCN6C(=O)[C@@H](NC(=O)OC)[C@@H](C)OC)nc5c4)cc3)ccc2[nH]1)[C@@H](C)OC` [Compound 72], the EC50 was < 1 nM.

For the compound `COC(=O)N[C@H](C(=O)N1CCC[C@H]1c1nc2cc(-c3ccc(-c4ccc5[nH]c([C@@H]6CCCN6C(=O)[C@@H](NC(=O)OC)C6CC6)nc5c4)cc3)ccc2[nH]1)C1CC1` [Compound 78], the EC50 is < 1 nM.

As to `COC(=O)N[C@H](C(=O)N1CCC[C@H]1c1nc2cc(-c3ccc(-c4ccc5[nH]c([C@@H]6CCCN6C(=O)[C@@H](NC(=O)OC)C(C)C)nc5c4)cc3)ccc2[nH]1)C(C)C` [Compound 83], the EC50 was < 1 nM.

Regarding `COC(=O)N[C@@H](Cn1cccn1)C(=O)N1CCC[C@H]1c1nc2cc(-c3ccc(-c4ccc5[nH]c([C@@H]6CCCN6C(=O)[C@H](Cn6cccn6)NC(=O)OC)nc5c4)cc3)ccc2[nH]1` [Compound 114], the EC50 is < 1 nM.

Regarding `COC(=O)N[C@@H](C(=O)N1CCC[C@H]1c1nc2cc(N3CCN(c4ccc5[nH]c([C@@H]6CCCN6C(=O)[C@H](NC(=O)OC)c6ccccc6)nc5c4)CC3)ccc2[nH]1)c1ccccc1` [Compound 354], the EC50 is < 1 nM.

Take `COC(=O)N[C@@H](C(=O)N1CCC[C@H]1c1nc2cc(N3CC(=O)N(c4ccc5[nH]c([C@@H]6CCCN6C(=O)[C@H](NC(=O)OC)c6ccccc6)nc5c4)CC3=O)ccc2[nH]1)c1ccccc1` [Compound 357]: the half-maximal effective concentration (EC50) was > 10 nM.

As for `CC(C)[C@H](NC(=O)OCc1ccccc1)C(=O)N1CCC[C@H]1c1nc2cc(-c3ccc(-c4ccc5[nH]c([C@@H]6CCCN6C(=O)[C@@H](NC(=O)OCc6ccccc6)C(C)C)nc5c4)cc3)ccc2[nH]1` [Compound 361], the concentration giving a half-maximal response (EC50) is > 10 nM.

Regarding `COC(=O)N[C@H](C(=O)N1CCC[C@H]1c1nc2cc(-c3ccc(-c4ccc5[nH]c([C@@H]6CCCN6C(=O)[C@@H](NC(=O)OC)C(C)(C)C)nc5c4)cc3)ccc2[nH]1)C(C)(C)C` [Compound 372], the EC50 was < 1 nM.
